In ChEMBL document CHEMBL2331118, “A facile three-component [3+2]-cycloaddition for the regioselective synthesis of highly functionalised dispiropyrrolidines acting as antimycobacterial agents” (Bioorg Med Chem Lett, 2013):
Converted amounts (≈) assume the structure as drawn.

Columns and labels:
[1] = test system: Mycobacterium tuberculosis; test: Antitubercular activity against Mycobacterium tuberculosis H37Rv by BacTiter-Gl Microbial Cell Viability assay; assay type: functional, organism-based
Vero = test: Cytotoxicity against african green monkey Vero cells after 72 hrs by MTT assay; assay type: cell-based; details: Chlorocebus sabaeus
[2] = test system: Mycobacterium tuberculosis; test: Antitubercular activity against Mycobacterium tuberculosis H37Rv by microdilution alamar Blue broth assay; assay type: functional, organism-based
[3] = test system: Mycobacterium tuberculosis; test: Ratio of cycloserine EC50 to compound EC50 for Mycobacterium tuberculosis H37Rv by BacTiter-Gl Microbial Cell Viability assay; assay type: functional
[4] = test system: Mycobacterium tuberculosis; test: Ratio of pyrimethamine MIC to compound MIC for Mycobacterium tuberculosis H37Rv by BacTiter-Gl Microbial Cell Viability assay; assay type: functional
[5] = test system: Mycobacterium tuberculosis; test: Ratio of cycloserine MIC to compound MIC for Mycobacterium tuberculosis H37Rv by BacTiter-Gl Microbial Cell Viability assay; assay type: functional
[6] = test system: Mycobacterium tuberculosis; test: Ratio of cycloserine EC90 to compound EC90 for Mycobacterium tuberculosis H37Rv by BacTiter-Gl Microbial Cell Viability assay; assay type: functional
[7] = test system: Mycobacterium tuberculosis; test: Ratio of pyrimethamine EC90 to compound EC90 for Mycobacterium tuberculosis H37Rv by BacTiter-Gl Microbial Cell Viability assay; assay type: functional
[8] = test system: Mycobacterium tuberculosis; test: Ratio of pyrimethamine EC50 to compound EC50 for Mycobacterium tuberculosis H37Rv by BacTiter-Gl Microbial Cell Viability assay; assay type: functional

SMILES	EC50 [1]	EC90 [1]	IC50 (Vero)	EC50 [2]	EC90 [2]	MIC [1]	MIC [2]	Ratio EC50 [3]	Ratio [4]	Ratio [5]	Ratio [6]	Ratio [7]	Ratio EC50 [8]
CN1C[C@H](c2ccc(N3CCOCC3)cc2)[C@]2(Cc3ccccc3C2=O)[C@]12C(=O)c1cccc3cccc2c13	18.9 µM	> 100 µM	> 62.5 µg/mL	> 100 µM	> 100 µM								
CCc1nc(N)nc(N)c1-c1ccc(Cl)cc1 [PYRIMETHAMINE]	24.3 µM	46.4 µM	> 62.5 µg/mL	25.1 µM	28 µM	100 µM (≈ 24.9 µg/mL)	100 µM (≈ 24.9 µg/mL)						
COc1ccc([C@H]2CN(C)[C@@]3(C(=O)c4cccc5cccc3c45)[C@@]23Cc2ccccc2C3=O)cc1	13.4 µM	62.4 µM	> 62.5 µg/mL	40.9 µM	> 100 µM	100 µM (≈ 46 µg/mL)							
CC[C@@H](CO)NCCN[C@@H](CC)CO [ETHAMBUTOL]	1.5 µM	1.64 µM	> 62.5 µg/mL	3.45 µM	> 200 µM	6.25 µM (≈ 1.28 µg/mL)							
COc1ccc(OC)c([C@H]2CN(C)[C@@]3(C(=O)c4cccc5cccc3c45)[C@@]23Cc2ccccc2C3=O)c1	9.56 µM	> 100 µM	> 62.5 µg/mL	68 µM	> 100 µM								
CN1C[C@H](c2ccc(C(=O)O)cc2)[C@]2(Cc3ccccc3C2=O)[C@]12C(=O)c1cccc3cccc2c13	20.7 µM	> 100 µM	> 62.5 µg/mL	69.2 µM	99.7 µM	100 µM (≈ 47.4 µg/mL)	100 µM (≈ 47.4 µg/mL)						
CN1C[C@H](c2ccc(Br)cc2)[C@]2(Cc3ccccc3C2=O)[C@]12C(=O)c1cccc3cccc2c13	2.2 µM	10.8 µM	> 62.5 µg/mL	15.1 µM	> 100 µM	12.5 µM (≈ 6.36 µg/mL)		10.7	>8	>8	2.45	4.3	11
CN1C[C@H](c2cccc3c2OCO3)[C@]2(Cc3ccccc3C2=O)[C@]12C(=O)c1cccc3cccc2c13	11.5 µM	> 100 µM	> 62.5 µg/mL	63.8 µM	> 100 µM	100 µM (≈ 47.4 µg/mL)							
CO[C@H]1/C=C/O[C@@]2(C)Oc3c(C)c(O)c4c(O)c(c(/C=N/N5CCN(C)CC5)c(O)c4c3C2=O)NC(=O)/C(C)=C\C=C\[C@H](C)[C@H](O)[C@@H](C)[C@@H](O)[C@@H](C)[C@H](OC(C)=O)[C@@H]1C [RIFAMPIN]	0.02 µM	0.03 µM	> 62.5 µg/mL	0.02 µM	0.02 µM	0.04 µM (≈ 0.0329 µg/mL)	0.16 µM (≈ 0.132 µg/mL)						
NCC[C@H](O)C(=O)N[C@@H]1C[C@H](N)[C@@H](O[C@H]2O[C@H](CN)[C@@H](O)[C@H](O)[C@H]2O)[C@H](O)[C@H]1O[C@H]1O[C@H](CO)[C@@H](O)[C@H](N)[C@H]1O [AMIKACIN]	0.07 µM	0.12 µM	> 62.5 µg/mL	0.12 µM	0.14 µM	0.16 µM (≈ 0.0937 µg/mL)	0.16 µM (≈ 0.0937 µg/mL)						
CN(C)c1ccc([C@H]2CN(C)[C@@]3(C(=O)c4cccc5cccc3c45)[C@@]23Cc2ccccc2C3=O)cc1	9.87 µM	55.3 µM	> 62.5 µg/mL	56 µM	> 100 µM	100 µM (≈ 47.3 µg/mL)							
CN1C[C@H](c2ccc(OC(F)(F)F)cc2)[C@]2(Cc3ccccc3C2=O)[C@]12C(=O)c1cccc3cccc2c13	8.51 µM	26.1 µM	> 62.5 µg/mL	36.6 µM	> 100 µM	50 µM (≈ 25.7 µg/mL)							
CN1C[C@H](c2cccc([N+](=O)[O-])c2)[C@]2(Cc3ccccc3C2=O)[C@]12C(=O)c1cccc3cccc2c13	10.1 µM	> 100 µM	> 62.5 µg/mL	77.5 µM	> 100 µM								
CN1C[C@H](c2ccccc2)[C@]2(Cc3ccccc3C2=O)[C@]12C(=O)c1cccc3cccc2c13	> 100 µM	> 100 µM	> 62.5 µg/mL	> 100 µM	> 100 µM								
CN1C[C@H](c2ccc(N3CCCCC3)cc2)[C@]2(Cc3ccccc3C2=O)[C@]12C(=O)c1cccc3cccc2c13	17.8 µM	> 100 µM	> 62.5 µg/mL	> 100 µM	> 100 µM								
NNC(=O)c1ccncc1 [ISONIAZID]	0.13 µM	0.2 µM	> 62.5 µg/mL	0.19 µM	> 5 µM	0.31 µM (≈ 0.0425 µg/mL)							
N[C@@H]1CONC1=O [CYCLOSERINE]	23.6 µM	26.4 µM	> 62.5 µg/mL	24.8 µM	28 µM	100 µM (≈ 10.2 µg/mL)	100 µM (≈ 10.2 µg/mL)						
CN1C[C@H](c2cncc(-c3ccc(F)cc3)c2)[C@]2(Cc3ccccc3C2=O)[C@]12C(=O)c1cccc3cccc2c13	64.5 µM	> 100 µM	> 62.5 µg/mL	> 100 µM	> 100 µM								
CN1C[C@H](c2ccc(C(F)(F)F)cc2)[C@]2(Cc3ccccc3C2=O)[C@]12C(=O)c1cccc3cccc2c13	3.21 µM	12.3 µM	> 62.5 µg/mL	23.4 µM	> 100 µM	50 µM (≈ 24.9 µg/mL)							
CN1C[C@H](c2ccc(Cl)cc2)[C@]2(Cc3ccccc3C2=O)[C@]12C(=O)c1cccc3cccc2c13	6.27 µM	29.6 µM	> 62.5 µg/mL	68.5 µM	> 100 µM	50 µM (≈ 23.2 µg/mL)							
